# Measurements: patent publication US20140206681A1, “BTK INHIBITORS” (priority 2013, published 2014)
# Biological target: T1, BTK enzyme (recombinant full-length BTK, hBTK) (Homo sapiens, UniProt Q06187)
# T1 construct: recombinant protein from baculovirus-transfected Sf9 cells: full-length BTK, 6HIS-tag cleaved; 6HIS (cleaved yes); made in house; host or cells: baculovirus-transfected Sf9 cells
# Assay: BTK enzyme activity assay, LANCE TR-FRET
# Assay type: biochemical
# Conditions: 50 pM hBTK, 2 μM biotin-A5-peptide, 25 μM ATP; 60 min compound & enzyme incubation; read-out: IC50 BTK activity value
# T1 sequence (Q06187 whole entry): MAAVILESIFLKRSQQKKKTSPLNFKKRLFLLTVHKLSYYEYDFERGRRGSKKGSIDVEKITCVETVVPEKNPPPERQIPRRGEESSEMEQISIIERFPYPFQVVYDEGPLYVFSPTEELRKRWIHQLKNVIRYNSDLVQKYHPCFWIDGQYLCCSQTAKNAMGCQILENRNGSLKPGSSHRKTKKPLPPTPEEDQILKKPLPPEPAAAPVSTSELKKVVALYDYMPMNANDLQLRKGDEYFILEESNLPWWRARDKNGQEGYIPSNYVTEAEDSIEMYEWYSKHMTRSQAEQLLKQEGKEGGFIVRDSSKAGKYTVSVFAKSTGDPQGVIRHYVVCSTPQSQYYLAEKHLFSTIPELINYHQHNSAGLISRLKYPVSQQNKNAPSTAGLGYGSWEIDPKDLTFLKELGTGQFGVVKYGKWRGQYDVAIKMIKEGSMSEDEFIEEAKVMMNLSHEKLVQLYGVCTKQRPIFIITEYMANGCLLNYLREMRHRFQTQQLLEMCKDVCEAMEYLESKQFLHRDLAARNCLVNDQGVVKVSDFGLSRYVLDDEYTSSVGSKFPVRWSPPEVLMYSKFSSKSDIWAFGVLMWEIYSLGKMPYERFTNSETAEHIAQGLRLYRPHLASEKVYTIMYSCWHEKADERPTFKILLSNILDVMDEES
row,IC50 [nM],Structure (SMILES)
1,7.6,"Nc1nccn2c([C@@H]3CC[C@@H]4C[C@H](O)C(=O)N4C3)nc(-c3ccc(C(=O)Nc4cc(C(F)(F)F)ccn4)cc3)c12 [Example 75, 4-{8-amino-3-[(2S,6R,8aR)-2-hydroxy-3-oxooctahydroindolizin-6-yl]imidazo[1,5-a]pyrazin-1-yl}-N-[4-(trifluoromethyl)pyridin-2-yl]benzamide]"
2,11.4,"CC1(C)C[C@@H]2CC[C@@H](c3nc(-c4ccc(C(=O)Nc5cc(C(F)(F)F)ccn5)cc4)c4c(N)nccn34)CN2C1=O [Example 95, 4-{8-amino-3-[(6R,8aS)-2,2-dimethyl-3-oxooctahydroindolizin-6-yl]imidazo[1,5-a]pyrazin-1-yl}-N-[4-(trifluoromethyl)pyridin-2-yl]benzamide]"
3,0.85,"CC(C)(F)c1ccnc(NC(=O)c2ccc(-c3nc([C@@H]4CC[C@H]5CCC(=O)N5C4)n4ccnc(N)c34)cc2)c1 [Example 30, 4-{8-amino-3-[(6R,8aS)-3-oxooctahydroindolizin-6-yl]imidazo[1,5-a]pyrazin-1-yl}-N-[4-(1-fluoro-1-methylethyl)pyridin-2-yl]benzamide]"
4,0.54,"CC(F)(F)c1ccnc(NC(=O)c2ccc(-c3nc([C@@H]4CC[C@H]5CCC(=O)N5C4)n4ccnc(N)c34)cc2F)c1 [Example 25, 4-{8-amino-3-[(6R,8aS)-3-oxooctahydroindolizin-6-yl]imidazo[1,5-a]pyrazin-1-yl}-N-[4-(1,1-difluoroethyl)pyridin-2-yl]-2-fluorobenzamide]"
5,0.083,"Nc1nccn2c([C@@H]3CC[C@H]4COC(=O)N4C3)nc(-c3ccc(C(=O)Nc4cc(C(F)(F)F)ccn4)cc3F)c12 [Example 12, 4-(8-amino-3-((6R,8aS)-3-oxohexahydro-1H-oxazolo[3,4-a]pyridin-6-yl)imidazo[1,5-a]pyrazin-1-yl)-3-fluoro-N-(4-(trifluoromethyl)pyridin-2-yl)benzamide]"
6,1.3,"Nc1nccn2c([C@H]3CC[C@@H]4COC(=O)N4C3)nc(-c3ccc(C(=O)Nc4cc(C(F)(F)F)ccn4)cc3F)c12 (stereo in doubt) [Example 13, 4-(8-amino-3-((6S,8aR)-3-oxohexahydro-1H-oxazolo[3,4-a]pyridin-6-yl)imidazo[1,5-a]pyrazin-1-yl)-3-fluoro-N-(4-(trifluoromethyl)pyridin-2-yl)benzamide]"
7,6.7,"C[C@@H]1CC(=O)N2C[C@H](c3nc(-c4ccc(C(=O)Nc5cc(C(F)(F)F)ccn5)cc4)c4c(N)nccn34)CC[C@@H]12 [Example 62, 4-{8-amino-3-[(1R,6R,8aS)-1-methyl-3-oxooctahydroindolizin-6-yl]imidazo[1,5-a]pyrazin-1-yl}-N-[4-(trifluoromethyl)pyridin-2-yl]benzamide]"
8,0.41,"Cc1cc(-c2nc([C@@H]3CC[C@H]4CCC(=O)N4C3)n3ccnc(N)c23)ccc1C(=O)Nc1cc(C(F)(F)F)ccn1 [Example 22, 4-{8-amino-3-[(6R,8aS)-3-oxooctahydroindolizin-6-yl]imidazo[1,5-a]pyrazin-1-yl}-2-methyl-N-[4-(trifluoromethyl)pyridin-2-yl]benzamide]"
9,9.6,"Nc1nccn2c([C@@H]3CC[C@@H]4CNCC(=O)N4C3)nc(-c3ccc(C(=O)Nc4cc(C(F)(F)F)ccn4)cc3)c12 [Example 54, 4-{8-amino-3-[(7R,9aR)-4-oxooctahydro-2H-pyrido[1,2-a]pyrazin-7-yl]imidazo[1,5-a]pyrazin-1-yl}-N-[4-(trifluoromethyl)pyridin-2-yl]benzamide]"
10,0.3,"Nc1nccn2c([C@@H]3CC[C@H]4COCCN4C3)nc(-c3ccc(C(=O)Nc4cc(C(F)(F)F)ccn4)cc3)c12 [Example 55, 4-{8-amino-3-[(7R,9aS)-octahydropyrido[2,1-c][1,4]oxazin-7-yl]imidazo[1,5-a]pyrazin-1-yl}-N-[4-(trifluoromethyl)pyridin-2-yl]benzamide]"
11,0.45,"CC(C)(C(=O)O)N1CC(=O)N2C[C@H](c3nc(-c4ccc(C(=O)Nc5cc(C(F)(F)F)ccn5)cc4)c4c(N)nccn34)CC[C@H]2C1 [Example 86, 2-((7R,9aS)-7-(8-amino-1-(4-((4-(trifluoromethyl)pyridin-2-yl)carbamoyl)phenyl)imidazo[1,5-a]pyrazin-3-yl)-4-oxohexahydro-1H-pyrido[1,2-a]pyrazin-2(6H)-yl)-2-methylpropanoic acid]"
12,0.21,"C[C@H]1OC(=O)N2C[C@H](c3nc(-c4ccc(C(=O)Nc5cc(C6CC6)ccn5)cc4F)c4c(N)nccn34)CC[C@@H]12 [Example 32, 4-{8-amino-3-[(1R,6R,8aS)-1-methyl-3-oxohexahydro[1,3]oxazolo[3,4-a]pyridin-6-yl]imidazo[1,5-a]pyrazin-1-yl}-N-(4-cyclopropylpyridin-2-yl)-3-fluorobenzamide]"

# Continued, compound first:
row,Structure (SMILES),IC50 [nM]
1,"COc1cc(C(=O)Nc2cc(C#N)ccn2)ccc1-c1nc([C@@H]2CC[C@H]3CCC(=O)N3C2)n2ccnc(N)c12 [Example 35, 4-{8-amino-3-[(6R,8aS)-3-oxooctahydroindolizin-6-yl]imidazo[1,5-a]pyrazin-1-yl}-N-(4-cyanopyridin-2-yl)-3-methoxybenzamide]",1.1
2,"CCOc1cc(C(=O)Nc2cc(C(F)(F)F)ccn2)c(F)cc1-c1nc([C@@H]2CC[C@H]3CCC(=O)N3C2)n2c(Cl)cnc(N)c12 [Example 133, 4-{8-amino-5-chloro-3-[(6R,8aS)-3-oxooctahydroindolizin-6-yl]imidazo[1,5-a]pyrazin-1-yl}-5-ethoxy-2-fluoro-N-[4-(trifluoromethyl)pyridin-2-yl]benzamide]",0.55
3,"Nc1nccn2c([C@@H]3CC[C@H]4CCC(=O)N4C3)nc(-c3ccc(C(=O)Nc4ncc[nH]4)cc3)c12 [Example 172, 4-{8-amino-3-[(6R,8aS)-3-oxooctahydroindolizin-6-yl]imidazo[1,5-a]pyrazin-1-yl}-N-1H-imidazol-2-ylbenzamide]",50.7
4,"Cc1c(C(F)(F)F)ccnc1NC(=O)c1ccc(-c2nc([C@@H]3CC[C@H]4CCC(=O)N4C3)n3ccnc(N)c23)cc1 [Example 122, 4-{8-amino-3-[(6R,8aS)-3-oxooctahydroindolizin-6-yl]imidazo[1,5-a]pyrazin-1-yl}-N-[3-methyl-4-(trifluoromethyl)pyridin-2-yl]benzamide]",12.4
5,"Nc1ncc(Cl)n2c([C@@H]3CC[C@H]4CCC(=O)N4C3)nc(-c3ccc(C(=O)Nc4cc(C(F)(F)F)ccn4)cc3OC3CC3)c12 [Example 144, 4-{8-amino-5-chloro-3-[(6R,8aS)-3-oxooctahydroindolizin-6-yl]imidazo[1,5-a]pyrazin-1-yl}-3-(cyclopropyloxy)-N-[4-(trifluoromethyl)pyridin-2-yl]benzamide]",0.5
6,"Nc1nccn2c([C@@H]3CC[C@H]4CCC(=O)N4C3)nc(-c3ccc(C(=O)Nc4cc(C(F)F)ccn4)c(F)c3)c12 [Example 26, 4-{8-amino-3-[(6R,8aS)-3-oxooctahydroindolizin-6-yl]imidazo[1,5-a]pyrazin-1-yl}-N-[4-(difluoromethyl)pyridin-2-yl]-2-fluorobenzamide]",1.5
7,"Nc1nccn2c([C@@H]3CC[C@H]4CCC(=O)N4C3)nc(-c3ccc(C(=O)Nc4cc(C5(F)COC5)ccn4)cc3)c12 [Example 29, 4-{8-amino-3-[(6R,8aS)-3-oxooctahydroindolizin-6-yl]imidazo[1,5-a]pyrazin-1-yl}-N-[4-(3-fluorooxetan-3-yl)pyridin-2-yl]benzamide]",1.9
8,"Cc1cnc(NC(=O)c2ccc(-c3nc([C@@H]4CC[C@H]5CCC(=O)N5C4)n4c(Cl)cnc(N)c34)cc2)s1 [Example 154, 4-{8-amino-5-chloro-3-[(6R,8aS)-3-oxooctahydroindolizin-6-yl]imidazo[1,5-a]pyrazin-1-yl}-N-(5-methyl-1,3-thiazol-2-yl)benzamide]",0.81
9,"Nc1nccn2c([C@@H]3CC[C@H]4CCC(=O)N4C3)nc(-c3ccc(C(=O)Nc4cc(OC5CC5)ccn4)cc3)c12 [Example 5, 4-(8-amino-3-((6R,8aS)-3-oxooctahydroindolizin-6-yl)imidazo[1,5-a]pyrazin-1-yl)-N-(4-cyclopropoxypyridin-2-yl)benzamide]",0.24
10,"Nc1nccn2c([C@@H]3CC[C@H]4CCC(=O)N4C3)nc(-c3ccc(C(=O)Nc4cc(C(F)(F)F)on4)cc3)c12 [Example 173, 4-{8-amino-3-[(6R,8aS)-3-oxooctahydroindolizin-6-yl]imidazo[1,5-a]pyrazin-1-yl}-N-[5-(trifluoromethyl)isoxazol-3-yl]benzamide]",245
11,"Nc1nccn2c([C@@H]3CC[C@H]4CCC(=O)N4C3)nc(-c3ccc(C(=O)Nc4cc(C(F)(F)F)cc(C5CCC5)n4)cc3)c12 [Example 126, 4-{8-amino-3-[(6R,8aS)-3-oxooctahydroindolizin-6-yl]limidazo[1,5-a]pyrazin-1-yl}-N-[6-cyclobutyl-4-(trifluoromethyl)pyridin-2-yl]benzamide]",766
12,"Cn1nc(NC(=O)c2ccc(-c3nc([C@@H]4CC[C@H]5CCC(=O)N5C4)n4ccnc(N)c34)cc2)cc1C(F)(F)F [Example 171, 4-{8-amino-3-[(6R,8aS)-3-oxooctahydroindolizin-6-yl]imidazo[1,5-a]pyrazin-1-yl}-N-[1-methyl-5-(trifluoromethyl)-1H-pyrazol-3-yl]benzamide]",0.41
13,Nc1nccn2c([C@@H]3CC[C@H]4CCC(=O)N4C3)nc(-c3ccc(C(=O)Nc4cc(C(F)F)ccn4)cc3)c12 [Example 17],0.31

# Same assay, conditions: IC50 BTK activity value, 50 pM hBTK, 2 μM biotin-A5-peptide, 25 μM ATP; 60 min compound & enzyme incubation
row,Structure (SMILES),IC50 [nM]
1,"Nc1nccn2c([C@@H]3CC[C@@H]4COC(=O)N4C3)nc(-c3ccc(C(=O)Nc4cc(C(F)(F)F)ccn4)cc3)c12 [Example 2, 4-(8-amino-3-((6R,8aR)-3-oxohexahydro-1H-oxazolo[3,4-a]pyridin-6-yl)imidazo[1,5-a]pyrazin-1-yl)-N-(4-(trifluoromethyl)pyridin-2-yl)benzamide]",15.6
2,"Nc1nccn2c([C@H]3CC[C@H]4COC(=O)N4C3)nc(-c3ccc(C(=O)Nc4cc(C(F)(F)F)ccn4)cc3)c12 [Example 1, 4-(8-amino-3-((6S,8aS)-3-oxohexahydro-1H-oxazolo[3,4-a]pyridin-6-yl)imidazo[1,5-a]pyrazin-1-yl)-N-(4-(trifluoromethyl)pyridin-2-yl)benzamide]",5.5
